Test results as given in patent US10472386B2, “Bile acid derivatives as FXR agonists and methods of use thereof” (priority 2017, dated 2019).

Target: T1, human FXR (NR1H4) (Homo sapiens, UniProt Q96RI1)
T1 sequence (Q96RI1 1-486): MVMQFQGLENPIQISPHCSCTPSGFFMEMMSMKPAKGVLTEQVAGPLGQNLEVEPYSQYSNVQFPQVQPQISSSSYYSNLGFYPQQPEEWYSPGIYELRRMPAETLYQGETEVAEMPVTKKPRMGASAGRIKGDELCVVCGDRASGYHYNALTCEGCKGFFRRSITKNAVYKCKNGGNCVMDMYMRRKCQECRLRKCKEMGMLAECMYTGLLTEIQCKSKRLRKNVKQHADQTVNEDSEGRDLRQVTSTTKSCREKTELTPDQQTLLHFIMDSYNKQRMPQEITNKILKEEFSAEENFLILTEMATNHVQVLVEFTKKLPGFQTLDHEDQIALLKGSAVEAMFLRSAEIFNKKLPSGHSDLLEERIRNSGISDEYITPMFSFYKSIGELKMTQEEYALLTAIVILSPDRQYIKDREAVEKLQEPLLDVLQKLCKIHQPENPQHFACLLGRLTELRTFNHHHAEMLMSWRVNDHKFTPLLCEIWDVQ
Assay: Human FXR (NR1H4) Assay (Gal4 promoter driven luciferase reporter, Indigo Bioscience kit IB00601)
Type: cell-based
Settings: FXR agonistic potency; CHO reporter cells expressing human NR1H4; 22 hours incubation; luciferase readout
From the text: Determination of a ligand mediated Gal4 promoter driven transactivation to quantify ligand binding mediated activation of FXR. FXR Reporter Assay kit purchased from Indigo Bioscience (Catalogue number: IB00601) to determine the potency and efficacy of compound developed by Enanta that can induce FXR activation. The principle application of this reporter assay system is to quantify functional activity of human FXR. The assay utilizes non-human mammalian cells, CHO (Chinese hamster ovary) cells engineered to express human NR1H4 protein (referred to as FXR). Reporter cells also incorporate the cDNA encoding beetle luciferase which catalyzes the substrates and yields photon emission. Luminescence intensity of the reaction is quantified using a plate-reading luminometer, Envision. Reporter Cells include the luciferase reporter gene functionally linked to an FXR responsive promoter. Thus, quantifying changes in luciferase expression in the treated reporter cells provides a sensitive surrogate measure of the changes in FXR activity. […] The assay is according to the manufacturer's instructions. In brief, the assay was performed in white, 96 well plates using final volume of 100 uL containing cells with different doses of compounds. Retrieve Reporter Cells from −80° C. storage. Perform a rapid thaw of the frozen cells by transferring a 10 ml volume of 37° C. cell recovery medium into the tube of frozen cells. Recap the tube of Reporter Cells and immediately place it in a 37° C. water bath for 5-10 minutes. Retrieve the tube of Reporter Cell Suspension from the water bath. Sanitize the outside surface of the tube with a 70% alcohol swab, and then transfer it into the cell culture hood. Dispense 90 μl of cell suspension into each well of the 96-well Assay Plate. Transfer the plate into 37° C. incubator, allowing the cells adherent to the bottom of the well. Dilute compounds in Dilution Plate (DP), and administrate to cells at Assay Plate (AP). DMSO content of the samples was kept at 0.2%. Cells were incubated for additional 22 hours before luciferase activities were measured. Thirty minutes before intending to quantify FXR activity, remove Detection Substrate and Detection Buffer from the refrigerator and place them in a low-light area so that they may equilibrate to room temperature. Remove the plate's lid and discard all media contents by ejecting it into an appropriate waste container. Gently tap the inverted plate onto a clean absorbent paper towel to remove residual droplets. Cells will remain tightly adhered to well bottoms. Add 100 μl of luciferase detection reagent to each well of the assay plate. Allow the assay plate to rest at room temperature for at least 5 minutes following the addition of LDR. Set the instrument (Envision) to perform a single 5 second “plate shake” prior to reading the first assay well. Read time may be 0.5 second (500 mSec) per well.

Structure (SMILES)	EC50
CC[C@H]1[C@@H](O)[C@@H]2[C@H](CC[C@]3(C)[C@@H]([C@H](C)COC(=O)NS(=O)(=O)c4ccc(OC5CCC5)cc4)CC[C@@H]23)[C@@]2(C)CC[C@@H](O)C[C@@H]12 [Example 8]	< 1 nM
CC[C@H]1[C@@H](O)[C@@H]2[C@H](CC[C@]3(C)[C@@H]([C@H](C)COC(=O)NS(=O)(=O)c4ccc(OC(C)C)c(C)c4)CC[C@@H]23)[C@@]2(C)CC[C@@H](O)C[C@@H]12 [Example 13]	< 1 nM
CCCOc1ccc(S(=O)(=O)NC(=O)OC[C@@H](C)[C@H]2CC[C@H]3[C@@H]4[C@H](O)[C@H](CC)[C@@H]5C[C@H](O)CC[C@]5(C)[C@H]4CC[C@]23C)cc1 [Example 15]	< 1 nM
CC[C@H]1[C@@H](O)[C@@H]2[C@H](CC[C@]3(C)[C@@H]([C@H](C)COC(=O)NS(=O)(=O)c4ccc(OCC(C)(C)C)cc4)CC[C@@H]23)[C@@]2(C)CC[C@@H](O)C[C@@H]12 [Example 20]	1 to 10 nM
CC[C@H]1[C@@H](O)[C@@H]2[C@H](CC[C@]3(C)[C@@H]([C@H](C)COC(=O)NS(=O)(=O)c4ccc(OC5(C)CCCC5)cc4)CC[C@@H]23)[C@@]2(C)CC[C@@H](O)C[C@@H]12 [Example 10]	< 1 nM
